In US6004966A, “Use of xanthine oxidase inhibitors as anti-ischaemic agents” (BTG International Limited, priority 1994, dated 1999):
Like-named read-outs stand apart in the source and are kept apart here.

Assays:
[1] = biological target: bovine xanthine oxidase (Bos taurus, UniProt P80457); assay: Further xanthine oxidase inhibition studies, steady-state kinetic analysis (uric acid formation); type: biochemical; details: 37° C.; for manner of xanthine oxidase inhibition: pH 7.4, inhibitors 1-3 μM
Chain of bovine xanthine oxidase (P80457 whole entry): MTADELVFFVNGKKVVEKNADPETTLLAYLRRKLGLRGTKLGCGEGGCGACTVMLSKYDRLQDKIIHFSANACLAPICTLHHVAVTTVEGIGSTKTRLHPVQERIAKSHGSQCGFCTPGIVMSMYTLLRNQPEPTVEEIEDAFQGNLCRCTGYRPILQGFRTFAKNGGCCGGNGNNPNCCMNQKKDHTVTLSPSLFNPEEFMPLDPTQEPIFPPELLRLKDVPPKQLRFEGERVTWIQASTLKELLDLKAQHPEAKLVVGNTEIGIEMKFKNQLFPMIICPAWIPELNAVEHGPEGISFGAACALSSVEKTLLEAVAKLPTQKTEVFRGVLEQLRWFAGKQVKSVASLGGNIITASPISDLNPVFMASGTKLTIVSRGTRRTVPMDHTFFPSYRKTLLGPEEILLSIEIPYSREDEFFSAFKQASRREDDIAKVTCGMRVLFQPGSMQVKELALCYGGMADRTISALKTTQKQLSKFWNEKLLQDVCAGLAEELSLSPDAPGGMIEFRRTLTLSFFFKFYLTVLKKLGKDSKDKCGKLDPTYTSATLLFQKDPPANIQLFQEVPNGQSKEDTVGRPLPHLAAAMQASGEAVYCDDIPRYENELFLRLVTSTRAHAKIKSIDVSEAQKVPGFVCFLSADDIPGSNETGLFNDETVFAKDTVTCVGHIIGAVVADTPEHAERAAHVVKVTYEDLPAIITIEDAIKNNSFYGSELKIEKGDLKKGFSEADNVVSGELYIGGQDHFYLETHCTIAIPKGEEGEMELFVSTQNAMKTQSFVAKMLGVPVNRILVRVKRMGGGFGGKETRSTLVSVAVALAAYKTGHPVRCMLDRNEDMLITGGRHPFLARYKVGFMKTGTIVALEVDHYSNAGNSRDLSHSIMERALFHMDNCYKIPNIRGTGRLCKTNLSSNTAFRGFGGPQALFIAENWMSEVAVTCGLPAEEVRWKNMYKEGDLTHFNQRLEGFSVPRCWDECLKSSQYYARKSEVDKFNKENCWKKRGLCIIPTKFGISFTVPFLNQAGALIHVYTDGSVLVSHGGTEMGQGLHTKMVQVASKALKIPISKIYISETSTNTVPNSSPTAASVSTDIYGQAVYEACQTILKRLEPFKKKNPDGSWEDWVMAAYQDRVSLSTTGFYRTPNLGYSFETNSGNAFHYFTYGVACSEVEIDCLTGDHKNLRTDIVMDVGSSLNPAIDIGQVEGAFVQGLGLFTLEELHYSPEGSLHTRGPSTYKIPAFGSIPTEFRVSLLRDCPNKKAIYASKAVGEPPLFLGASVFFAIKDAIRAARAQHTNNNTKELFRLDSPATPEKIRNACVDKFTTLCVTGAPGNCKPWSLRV
Procedure: The study was conducted at 37° C. using 30 mU/ml bovine xanthine oxidase in 50 mM phosphate buffer (ph 7.4). The initial rate of uric acid formation was determined spectrophotometrically (292 nm) in the presence of varying concentrations of xanthine (5, 7.5, 10, 15 and 20 μM) and the inhibitors (1-3 μM). Enzyme-inhibitor dissociation constant (Ki) values were calculated from the apparent 1/Vmax values obtained at different inhibitor concentrations.

[2] = biological target: xanthine oxidase (Bos taurus, UniProt P80457); assay: Xanthine oxidase inhibition assay (superoxide-dependent cytochrome c reduction); type: biochemical; details: for % Inhibition (of initial rate of reaction) / inhibition at 1 µM / inhibition at 5 µM / inhibition at 10 µM / inhibition at 50 µM: n=3; for inhibition at 1 µM / inhibition at 5 µM / inhibition at 10 µM / inhibition at 50 µM: read-out: % Inhibition (of initial rate of reaction); for xanthine oxidase inhibition, result in words: statement under Table 4
Chain of xanthine oxidase (P80457 whole entry): as above
Procedure: Superoxide produced from the oxidation of varying concentrations of xanthine to uric acid in the presence of xanthine oxidase (5×10^-3 U/ml) was quantified by the superoxide dismutase inhibitable reduction of […] (10 μM) at 550 nm with respect to time. Enzyme inhibition was determined at varying concentrations of the inhibitors.

[3] = Hydroxyl radical scavenging activity (inhibition of NPG hydroxylation by peroxynitrous acid); details: n=3
Procedure: Antioxidant activity is based on the selective hydroxylation of NPG (N,N'-[5-nitro-1,3-phenylene] bisglutaramide) by hydroxyl radicals produced from peroxynitrous acid (1 mM) by the addition of peroxynitrite stabilised in base to a mixture of NPG (1 mM) and varying concentrations of the anti-ischaemic agents prepared in 0.2M phosphate buffer, pH 7. The solutions were analysed by RP-HPLC. NPS (50 mM), an analogue of NPG, was used as an internal standard. Inhibition of hydroxylation of NPG is a direct measure of the hydroxyl radical scavenging ability of the inhibitors.
Values are expressed as percentage scavenging of the hydroxyl radicals % standard deviation, n=3.

[4] = test system: rat hearts; assay: Heart ischaemia reperfusion studies (Langendorff perfused rat hearts); set-up: species or system Wistar rats; details: 150 μM in reperfusion perfusate, after 60 min aerobic perfusion following 50 min ischaemia, ±sem
Procedure: Adult male Wistar rats (240-320 g) were anaesthetised intraperitoneally (i.p.) with sodium pentobarbital (Sagatal; 60 mg/kg and heparinised (100 IU/100 g body weight) through the femoral vein, and the heart excised in cold Krebs buffer. By Langendorff technique, the hearts were perfused at a constant pressure (100 mm H2 O) with Krebs bicarbonate buffer. The study was initiated by 30 min aerobic perfusion followed by a 50 min period of global ischaemia, achieved by clamping perfusion flow into the aorta, and finally by reperfusion over 60 min. A ballon was inserted into the left ventricle and inflated to a left ventricular end diastolic pressure (LVEDP) of 4 mm Hg and used to measure left ventricular developed pressure (LVDP) and heart rate (HR). In addition, the coronary effluent was collected over timed intervals as a measure of coronary flow (CF). Assessment of function was made 20 min after the start of the study and at 10 min intervals thereafter. SL301 treated hearts followed a similar protocol as above except that the drug was present in the reperfusion perfusate following the ischaemic insult.

[5] = Table 1, [Xanthine] = 50 μM, inhibitor 1 μM
[6] = Table 1, [Xanthine] = 50 μM, inhibitor 5 μM
[7] = Table 1, [Xanthine] = 50 μM, inhibitor 10 μM
[8] = Table 1, [Xanthine] = 50 μM, inhibitor 50 μM
[9] = Table 2, [Xanthine] = 25 μM, inhibitor 5 μM
[10] = Table 2, [Xanthine] = 25 μM, inhibitor 10 μM
[11] = Table 2, [Xanthine] = 25 μM, inhibitor 50 μM
[12] = Table 3, [Xanthine] = 25 μM, inhibitor 1 μM
[13] = Table 3, [Xanthine] = 25 μM, inhibitor 5 μM
[14] = Table 3, [Xanthine] = 25 μM, inhibitor 10 μM
[15] = Table 3, [Xanthine] = 25 μM, inhibitor 50 μM
[16] = Table 4, [Xanthine] = 8 μM, inhibitor 1 μM
[17] = Table 4, [Xanthine] = 8 μM, inhibitor 5 μM
[18] = Table 4, [Xanthine] = 8 μM, inhibitor 10 μM
[19] = Table 4, [Xanthine] = 8 μM, inhibitor 50 μM
[20] = Table 2, [Xanthine] = 25 μM, inhibitor 1 μM

SMILES | inhibition at 5 µM [2, 6] | inhibition at 10 µM [2, 7] | inhibition at 50 µM [2, 8] | inhibition at 1 µM [2, 20] | inhibition at 5 µM [2, 9] | inhibition at 10 µM [2, 10] | inhibition at 50 µM [2, 11] | inhibition at 5 µM [2, 13] | inhibition at 10 µM [2, 14] | inhibition at 50 µM [2, 15] | inhibition at 1 µM [2, 16] | inhibition at 5 µM [2, 17] | inhibition at 10 µM [2, 18] | inhibition at 50 µM [2, 19] | xanthine oxidase inhibition, result in words [2] | % Activity (percentage scavenging of the hydroxyl radical) ([3]; Antioxidant Ratio 0.1) | % Activity (percentage scavenging of the hydroxyl radical) ([3]; Antioxidant Ratio 0.5) | % Activity (percentage scavenging of the hydroxyl radical) ([3]; Antioxidant Ratio 1.0) | % Activity (percentage scavenging of the hydroxyl radical) ([3]; Antioxidant Ratio 5.0) | further results
Oc1ncnc2[nH]ncc12 [Allopurinol, allopurinol, reference compound] |  |  |  |  |  |  |  |  |  |  |  |  |  |  |  |  |  |  |  | manner of xanthine oxidase inhibition [1]: competitive; % Inhibition (of initial rate of reaction) [2, 5]: 13.83%; % Inhibition (of initial rate of reaction) [2, 6]: 22.90%; % Inhibition (of initial rate of reaction) [2, 7]: 20.63%; % Inhibition (of initial rate of reaction) [2, 8]: 59.18%; % Inhibition (of initial rate of reaction) [2, 9]: 2.41%; % Inhibition (of initial rate of reaction) [2, 10]: 14.09%; % Inhibition (of initial rate of reaction) [2, 11]: 58.76%; % Inhibition (of initial rate of reaction) [2, 12]: 23.88%; % Inhibition (of initial rate of reaction) [2, 13]: 64.57%; % Inhibition (of initial rate of reaction) [2, 14]: 44.88%; % Inhibition (of initial rate of reaction) [2, 15]: 68.50%; % Inhibition (of initial rate of reaction) [2, 16]: 17.40%; % Inhibition (of initial rate of reaction) [2, 17]: 29.20%; % Inhibition (of initial rate of reaction) [2, 18]: 49.85%; % Inhibition (of initial rate of reaction) [2, 19]: 73.45%
O=c1[nH]c(=O)c2c[nH]nc2[nH]1 [Oxypurinol, oxypurinol, reference compound] | 24.8% | 32.3% | 67.4% | 2.26% | 37.3% | 42.4% | 62.4% | 46.1% | 30.8% | 43.6% | 6.06% | 33.3% | 45.5% | 48.5% |  |  |  |  |  | inhibition at 1 µM [2, 5]: 2.26%; inhibition at 1 µM [2, 12]: 15.4%
O=c1c2cn[nH]c2ncn1O [SL100, 1, hydroxy-6-oxypyrazolo-[3,4-d]-pyrimidine] |  |  |  |  |  |  |  |  |  |  |  |  |  |  | inactive | 6.56% | 37.70% | 65.58% | 100% | 
O=c1[nH]c2[nH]ncc2c(=O)n1O [SL101, 2,6-dioxo-1-hydroxypyrazolo-[3,4-d]-pyrimidine] |  |  |  |  |  |  |  |  |  |  |  |  |  |  | inactive | 8.25% | 20.96% | 39.71% | 72.79% | 
O=c1c2[nH]cnc2ncn1O [SL200, 1-hydroxy-6-oxopurine] |  |  |  |  |  |  |  |  |  |  |  |  |  |  | inactive | 25.13% | 48.49% | 69.54% | 90.09% | 
O=c1[nH]c2[nH]cnc2c(=O)n1O [SL201] |  |  |  |  |  |  |  |  |  |  |  |  |  |  | inactive |  |  |  |  | 
O=c1c2nccnc2ncn1O [SL300, 1-hydroxy-6-oxypyrazino-[2,3-d]-pterine] | 1.84% | 14.2% | 16% | 13.8% | 9.09% | 16.1% | 34.7% | 5.55% | 11.1% | 27.8% | 6.15% | 12.6% | 19.1% | 38.5% |  |  | 6.04% | 26.58% | 68.58% | 
O=c1[nH]c2nccnc2c(=O)n1O [SL301] | 31.8% | 39.6% | 63.2% | 37.1% | 51% | 58% | 72% | 41.7% | 58.3% | 77.8% | 22.3% | 41.8% | 49.8% | 70.9% |  | 9.80% | 18.00% | 45.90% | 70.21% | % recovery of pre-ischaemic LVDP (left ventricular developed pressure) ([4]; control 41 ± 13): 76 ± 9%; % recovery of pre-ischaemic HR (heart rate) ([4]; control 49 ± 13): 90 ± 6%; % recovery of pre-ischaemic CF (coronary flow) ([4]; control 83 ± 6): 72 ± 4%; Ki ([1]; 30 mU/ml bovine xanthine oxidase, 50 mM phosphate buffer pH 7.4, xanthine 5-20 μM): 700 nM; manner of xanthine oxidase inhibition [1]: competitive; inhibition at 1 µM [2, 5]: 29.1%; inhibition at 1 µM [2, 12]: 25%
